Experimental data reported in US10351613B2, “Polypeptide for inhibition of tumor” (G-Bio Pharma Tech Co., Ltd., priority 2015, dated 2019).
≈ marks a conversion by molar mass, not a printed value. Like-named read-outs stand apart in the source and are kept apart here. Residues, ends and D or L forms follow the SMILES beside them.

B1: endostar: marketed recombinant human endostatin drug, SEQ ID NO: 10 (protein)
chain: MGGSHHHHHHSHRDFQPVLHLVALNAPLSGGMRGIRGADFQCFQQARAVGLAGTFRAFLSSRLQDLYSIVRRADRAAVPIVNLKDELLFPSWEALFSGSEGPLKPGARIFSFDGKDVLRHPTWPQKSVWHGSDPNGRRLTESYCETWRTEAPSATGQASSLLGGRLLGQSAASCHHAYIVLCIENSFMTASK
modifications: Recombinant human endostatin drug, endostar
B2: endostatin: Recombinant human endostatin, SEQ ID NO: 1, commercially available (protein, listed as Homo sapiens)
chain: HSHRDFQPVLHLVALNSPLSGGMRGIRGADFQCFQQARAVGLAGTFRAFLSSRLQDLYSIVRRADRAAVPIVNLKDELLFPSWEALFSGSEGPLKPGARIFSFDGKDVLRHPTWPQKSVWHGSDPNGRRLTESYCETWRTEAPSATGQASSLLGGRLLGQSAASCHHAYIVLCIENSFMTASK

Key:
[1] = test system: Human liver cancer BEL7404 tumor model; assay type: in vivo; settings: for Tumor inhibitor rate (%): BEL7404, day 21, polypeptides 15 mg/kg sc 2 times per day 21 days, endostatin/endostar 50 mg/kg sc, CTX 30 mg/kg ip 7 days
Procedure: In vitro cultured tumor cells in exponential phase and in good state were formulated to a 100 μl cell suspension containing 5×10^6 tumor cells. The suspension was subcutaneously inoculated to nude mice. Well-grown solid tumors were obtained 15 days later and cut into uniform pieces of about 3 mm under sterile condition. Each nude mouse was inoculated by one piece through a trocar. Mice were re-grouped according the tumor size 10-14 days after inoculation and animals having too large and too small tumor were excluded from the test. The average tumor volume for each group was basically identical. Test drugs were administered to each group according to the experimental protocol. The major axis (a) and minor axis (b) of the tumor were measured twice a week. Animals were sacrificed at the end of the test. The tumor was taken out, weighed and photos were taken. Tumor volume (TV)=½×a×b^2; Relative tumor volume (RTV)=Vt/Vo, wherein Vo is the tumor volume measured before grouping (one day before administration of the test drug), and Vt is the tumor volume measured at each time. Tumor inhibition rate (%)=(1−T/C)×100%, wherein T is the average tumor volume of the treatment group and C is the average tumor volume of the negative control group.
The amino acid sequence of recombination endostatin (“endostatin”) was set forth in SEQ ID NO: 1, and the amino acid sequence of the marketed drug Endostar (“endostar”) was set forth in SEQ ID NO: 10. Human liver cancer BEL7404 tumor model was constructed according to the method described in Example 10. The test contained 6 groups, with 6 animals in each group, except for the negative control group which contained 9 animals. The molar dose of the polypeptides was basically equal to the molar dose of endostatin. The results are shown in FIGS. 11a and 11b and the following Table.

[2] = test system: Human Umbilical Vein Endothelial Cell (HUVEC); assay type: cell-based; settings: for biological activity compared with P2: inhibition of HUVEC and HepG2
Procedure: 20 cm umbilical cord adjacent to fetus was taken, cleaned by washing, ligated at both ends, placed into 150 ml preservation solutions for umbilical cord, and stored in a 4° C. refrigerator for digestion for 6 hours. The umbilical cord was inspected to remove the damaged portion. The umbilical vein was thoroughly cleaned by washing and then 10 ml collagenase solution was injected. Then the umbilical vein was transferred to a 37° C. incubator for digestion for 15 minutes. The umbilical cord was removed and the digested solution was recovered. The digested solution was washed by PBS and centrifuged. After centrifugation, the cells were culture by re-suspension.
(§1) Inhibition of cell growth was detected by a MTT method, which is based on the principle that succinate dehydrogenase in the mitochondria of the live cells could reduce the exogenous MTT (3-(4,5-dimethyl-2-thiazolyl)-2,5-diphenyl-tetrazolium bromide) to a […] Formazan which is a blue-violet crystal, and precipitates in the cells, while the death cells could not reduce MTT. DMSO could dissolve Formazan in the cells. Absorbance value of the solution was determined at 490/570 nm by microplate reader, which could indirectly indicate the amount of the live cells. The amount of the crystal from MTT is proportional to the amount of the cells within a certain range of cell number. The supernate from the HUVEC or tumor cells in exponential phase was removed and the cells were washed by PBS once. 1 ml 0.25% trypsin (4° C.) was added for digestion at 37° C. for 2 min. Then the supernate was added for neutralization and the cells were dispersed to form a suspension and the suspension was centrifuged at 1000 rpm for 3 min. The supernate was removed and 5 ml culture mediums were added for resuspension. Cells were inoculated in a 48-well plate by 500 ul/well at the concentration of 3×10^4/ml and then incubated under 5% CO2, 37° C. for 24 hours. The supernate was removed and a culture medium containing polypeptide (Zn^2+ in the culture medium was present at the concentration of 17.39 μmol/L) was added for further incubation for 48 hours. Supernate in each well was carefully removed. The well was gently washed by PBS once in an amount of 450 μl/well. 450 μl MTT culture mediums were added into each well for further cultivation for 4 hours. The supernate was carefully discarded. DMSO was added in an amount of 450 μl/well and then the plate was placed in a shaking bed for oscillation for 10 min in dark. 150 μl supernates were transferred to a 96-well ELISA plate and absorbance value of each well was detected at 490 nm and 570 nm by the microplate reader.

[3] = test system: tumor cell HepG2; assay type: cell-based
Procedure: as §1

Row | Molecule | Tumor inhibitor rate (%) [1] [%] | toxic reaction ([1]; BEL7404 model, same regimens) | IC50 (ug/ml) HUVEC [2] [µg/mL] | Cell Survival (%), 1 mg/ml of polypeptide, HUVEC [2] [%] | reduction of IC50 concentration as compared to that of P2 ([2]; HUVEC and HepG2) | biological activity compared with P2 [2] | IC50 (ug/ml) HepG2 [3] [µg/mL] | Cell Survival (%), 1 mg/ml of polypeptide, HepG2 [3]; 1 [%] | Cell Survival (%), 1 mg/ml of polypeptide, HepG2 ([3]; 1 mg/ml) [%]
1 | O=P1(N(CCCl)CCCl)NCCCO1 (centres unmarked) [CTX, Cyclophosphamide, reference compound] | 68.0 | typical chemotherapeutic toxic side effect | – | – | – | – | – | – | –
2 | CC[C@H](C)[C@H](NC(=O)CNC(=O)[C@H](CCCNC(=N)N)NC(=O)[C@H](CCSC)NC(=O)CNC(=O)CNC(=O)[C@H](CO)NC(=O)[C@H](CC(C)C)NC(=O)[C@H](CC(N)=O)NC(=O)[C@H](CO)NC(=O)[C@H](CC(N)=O)NC(=O)[C@H](CC(C)C)NC(=O)[C@H](C)NC(=O)[C@@H](NC(=O)[C@H](CC(C)C)NC(=O)[C@H](Cc1c[nH]cn1)NC(=O)[C@H](CC(C)C)NC(=O)[C@@H](NC(=O)[C@@H]1CCCN1C(=O)[C@H](CCC(N)=O)NC(=O)[C@H](Cc1ccccc1)NC(=O)[C@H](CC(=O)O)NC(=O)[C@H](CCCNC(=N)N)NC(=O)[C@H](Cc1c[nH]cn1)NC(=O)[C@@H](NC(=O)[C@H](Cc1c[nH]cn1)NC(C)=O)[C@@H](C)O)C(C)C)C(C)C)C(=O)N[C@@H](CCCNC(=N)N)C(=O)NCC(=O)N[C@@H](C)C(=O)N[C@@H](CC(=O)O)C(N)=O [Polypeptide P2T2N18] (Ac-HTHRDFQPVLHLVALNSNLSGGMRGIRGAD-NH2) | – | – | 71.4 (≈ 21.6 µM) | 3 | about 10 folds | obviously higher than that of P2 | 187.9 (≈ 56.8 µM) | 7 | –
3 | CC[C@H](C)[C@H](NC(=O)CNC(=O)[C@H](CCCNC(=N)N)NC(=O)[C@H](CCSC)NC(=O)CNC(=O)CNC(=O)[C@H](CO)NC(=O)[C@H](CC(C)C)NC(=O)[C@@H]1CCCN1C(=O)[C@H](CO)NC(=O)[C@H](CC(N)=O)NC(=O)[C@H](CC(C)C)NC(=O)[C@H](C)NC(=O)[C@@H](NC(=O)[C@H](CC(C)C)NC(=O)[C@H](Cc1c[nH]cn1)NC(=O)[C@H](CC(C)C)NC(=O)[C@@H](NC(=O)[C@@H]1CCCN1C(=O)[C@H](CCC(N)=O)NC(=O)[C@H](Cc1ccccc1)NC(=O)[C@H](CC(=O)O)NC(=O)[C@H](CCCNC(=N)N)NC(=O)[C@H](Cc1c[nH]cn1)NC(=O)[C@@H](NC(=O)[C@H](Cc1c[nH]cn1)NC(C)=O)[C@@H](C)O)C(C)C)C(C)C)C(=O)N[C@@H](CCCNC(=N)N)C(=O)NCC(=O)N[C@@H](C)C(=O)N[C@@H](CC(=O)O)C(N)=O [Polypeptide P2T2] (Ac-HTHRDFQPVLHLVALNSPLSGGMRGIRGAD-NH2) | – | – | 1506.1 (≈ 457 µM) | 46 | – | lower biological activity than P2 | 2169.6 (≈ 659 µM) | 55 | –
4 | B1 | 28.5 | – | – | 82 | – | – | – | – | 91
5 | B2 | 41.2 | – | – | 70 | – | – | 2245.4 | – | 64
